In ChEMBL document CHEMBL1909046, “DrugMatrix in vitro pharmacology data”:

Key:
B2 bradykinin receptor = molecular target: T1, B2 bradykinin receptor (Homo sapiens, UniProt P30411); assay type: cell membranes, Membrane; settings: chem-1; note: in other assays of this panel Not Active means under 50% inhibition at 10 µM
T1 sequence (P30411 whole entry): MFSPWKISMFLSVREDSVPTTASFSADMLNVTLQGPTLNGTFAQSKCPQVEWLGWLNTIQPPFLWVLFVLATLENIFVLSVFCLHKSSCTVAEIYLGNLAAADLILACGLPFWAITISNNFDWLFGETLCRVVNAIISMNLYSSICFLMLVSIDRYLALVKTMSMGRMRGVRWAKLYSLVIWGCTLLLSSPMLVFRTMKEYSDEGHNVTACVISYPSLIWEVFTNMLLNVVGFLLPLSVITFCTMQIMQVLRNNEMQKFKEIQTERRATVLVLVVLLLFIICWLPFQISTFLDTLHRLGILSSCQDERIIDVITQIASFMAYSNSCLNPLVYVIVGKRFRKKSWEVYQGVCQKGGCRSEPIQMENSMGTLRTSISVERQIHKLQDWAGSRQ

[1] = molecular target: Aldo-keto reductase family 1 member B1 (Rattus norvegicus, UniProt P07943); assay: biochemical; assay type: tissue-based, Lens of camera-type eye;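 note: inhibition of aldose reductase enzyme activity, measured with DL-glyceraldehyde as the substrate; in other assays of this panel Not Active means under 50% inhibition at 10 µM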
[2] = molecular target: Platelet-activating factor receptor (Homo sapiens, UniProt P25105); assay type: tissue-based; note: in other assays of this panel Not Active means under 50% inhibition at 10 µM
[3] = molecular target: T2, Type-2 angiotensin II receptor (Homo sapiens, UniProt P50052); assay type: cell-based; settings: cho-k1; note: in other assays of this panel Not Active means under 50% inhibition at 10 µM
T2 sequence (P50052 whole entry): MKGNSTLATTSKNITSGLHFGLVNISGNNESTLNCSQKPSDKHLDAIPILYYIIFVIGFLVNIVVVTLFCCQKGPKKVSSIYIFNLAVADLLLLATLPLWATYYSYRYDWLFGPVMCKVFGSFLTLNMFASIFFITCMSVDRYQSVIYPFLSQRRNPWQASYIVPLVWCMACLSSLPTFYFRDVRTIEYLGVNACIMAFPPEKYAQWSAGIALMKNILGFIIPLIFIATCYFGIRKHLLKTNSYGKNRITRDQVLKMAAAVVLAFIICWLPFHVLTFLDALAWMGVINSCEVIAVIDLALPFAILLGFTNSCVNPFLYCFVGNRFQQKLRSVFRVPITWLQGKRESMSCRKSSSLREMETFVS

[4] = molecular target: T3, Angiotensin-converting enzyme (Oryctolagus cuniculus, UniProt P12822); assay type: tissue-based, Lung
T3 sequence (P12822 whole entry): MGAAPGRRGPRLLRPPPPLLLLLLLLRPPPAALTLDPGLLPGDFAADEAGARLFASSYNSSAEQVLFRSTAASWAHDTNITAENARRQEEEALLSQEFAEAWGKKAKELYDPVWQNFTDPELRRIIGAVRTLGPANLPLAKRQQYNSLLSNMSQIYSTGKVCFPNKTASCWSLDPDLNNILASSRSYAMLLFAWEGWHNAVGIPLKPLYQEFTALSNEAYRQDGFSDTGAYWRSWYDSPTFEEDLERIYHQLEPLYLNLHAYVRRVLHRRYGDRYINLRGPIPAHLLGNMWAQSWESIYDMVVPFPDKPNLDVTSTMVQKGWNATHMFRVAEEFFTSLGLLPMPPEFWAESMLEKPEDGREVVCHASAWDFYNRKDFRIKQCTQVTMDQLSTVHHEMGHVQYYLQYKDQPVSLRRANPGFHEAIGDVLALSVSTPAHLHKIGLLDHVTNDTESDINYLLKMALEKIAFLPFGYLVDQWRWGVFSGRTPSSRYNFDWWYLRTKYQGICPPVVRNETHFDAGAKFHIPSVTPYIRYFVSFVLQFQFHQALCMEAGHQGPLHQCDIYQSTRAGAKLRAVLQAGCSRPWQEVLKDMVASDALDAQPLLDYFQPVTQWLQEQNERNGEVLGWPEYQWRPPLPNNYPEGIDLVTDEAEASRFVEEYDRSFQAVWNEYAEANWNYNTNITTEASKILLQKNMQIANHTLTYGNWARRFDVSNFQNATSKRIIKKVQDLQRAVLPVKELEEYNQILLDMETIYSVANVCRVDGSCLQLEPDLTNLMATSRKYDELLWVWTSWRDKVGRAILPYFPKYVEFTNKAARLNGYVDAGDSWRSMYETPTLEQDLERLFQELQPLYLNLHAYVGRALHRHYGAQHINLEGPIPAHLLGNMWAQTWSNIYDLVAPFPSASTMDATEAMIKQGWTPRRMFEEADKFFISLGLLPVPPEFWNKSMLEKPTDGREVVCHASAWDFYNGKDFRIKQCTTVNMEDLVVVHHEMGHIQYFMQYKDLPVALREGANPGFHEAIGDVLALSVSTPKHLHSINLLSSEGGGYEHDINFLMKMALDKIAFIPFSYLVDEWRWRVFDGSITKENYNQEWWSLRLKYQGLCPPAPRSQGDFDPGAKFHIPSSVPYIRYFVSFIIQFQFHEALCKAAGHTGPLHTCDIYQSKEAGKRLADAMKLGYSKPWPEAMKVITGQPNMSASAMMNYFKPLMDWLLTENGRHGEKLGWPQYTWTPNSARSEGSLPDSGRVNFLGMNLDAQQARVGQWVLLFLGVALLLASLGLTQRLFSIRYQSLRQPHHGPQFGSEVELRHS

[5] = molecular target: T4, C-C chemokine receptor type 4 (Homo sapiens, UniProt P51679); assay type: cell membranes, Membrane; settings: chem-1; note: in other assays of this panel Not Active means under 50% inhibition at 10 µM
T4 sequence (P51679 whole entry): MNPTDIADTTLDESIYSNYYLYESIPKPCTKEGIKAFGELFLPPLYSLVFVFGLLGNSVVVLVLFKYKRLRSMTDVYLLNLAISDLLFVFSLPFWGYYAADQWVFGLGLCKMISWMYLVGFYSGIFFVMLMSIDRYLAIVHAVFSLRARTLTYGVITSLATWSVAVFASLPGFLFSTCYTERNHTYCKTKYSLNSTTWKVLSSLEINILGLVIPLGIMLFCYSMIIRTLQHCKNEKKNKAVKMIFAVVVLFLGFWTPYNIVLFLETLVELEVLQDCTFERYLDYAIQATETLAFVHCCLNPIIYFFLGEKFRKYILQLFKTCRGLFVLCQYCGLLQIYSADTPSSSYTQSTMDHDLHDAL

[6] = DRUGMATRIX: Leukotriene, BLT (LTB4) radioligand binding (ligand: [3H]LTB4); assay type: cell membranes, Membrane; settings: u-937; Not Active = under 50% inhibition at 10 µM
[7] = DRUGMATRIX: Sodium/nucleoside co-transporter radioligand binding (ligand: nitrobenzylthioinosine); assay type: cell membranes, Cavia porcellus, Dunkin-Hartley, Cerebral cortex, Membrane; settings: Not Active = under 50% inhibition at 10 µM
[8] = molecular target: Mitogen-activated protein kinase 3 (Homo sapiens, UniProt P27361); assay: DRUGMATRIX: Protein Serine/Threonine Kinase, ERK1 enzyme inhibition (substrate: Myelin Basic Protein); parameters: species or system Escherichia coli; settings: Not Active = under 50% inhibition at 10 µM
Mitogen-activated protein kinase 3, sequence (P27361 whole entry): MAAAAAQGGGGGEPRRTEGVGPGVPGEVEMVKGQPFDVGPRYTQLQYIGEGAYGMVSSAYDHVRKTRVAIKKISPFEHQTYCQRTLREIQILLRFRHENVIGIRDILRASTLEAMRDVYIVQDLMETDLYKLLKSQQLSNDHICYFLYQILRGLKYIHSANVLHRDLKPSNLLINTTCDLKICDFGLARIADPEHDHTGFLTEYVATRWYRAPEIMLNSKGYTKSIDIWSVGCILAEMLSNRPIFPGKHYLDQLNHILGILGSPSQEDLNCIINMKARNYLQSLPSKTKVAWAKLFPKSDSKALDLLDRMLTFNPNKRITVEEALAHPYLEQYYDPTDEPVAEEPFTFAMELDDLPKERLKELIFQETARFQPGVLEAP

Platelet-activating factor receptor, sequence (P25105 whole entry): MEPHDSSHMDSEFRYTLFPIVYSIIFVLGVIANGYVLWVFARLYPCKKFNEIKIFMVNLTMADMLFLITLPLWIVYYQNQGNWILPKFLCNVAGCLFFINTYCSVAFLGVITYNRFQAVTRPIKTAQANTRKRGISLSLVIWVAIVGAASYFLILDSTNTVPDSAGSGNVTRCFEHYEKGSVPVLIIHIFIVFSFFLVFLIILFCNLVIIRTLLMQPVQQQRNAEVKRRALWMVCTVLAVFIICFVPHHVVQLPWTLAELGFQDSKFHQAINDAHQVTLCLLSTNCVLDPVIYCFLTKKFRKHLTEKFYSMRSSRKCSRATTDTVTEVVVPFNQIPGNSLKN

Cc1cc2cc3c(C)cc(=O)oc3c(C)c2o1 [TRIOXSALEN]
Not Active: IC50 (B2 bradykinin receptor) | IC50 [1] | IC50 [2] | IC50 [3] | IC50 [4] | IC50 [5] | IC50 [6] | Ki [6] | IC50 [7] | Ki [7] | IC50 [8]

CCCC(CCC)C(=O)O [VALPROIC ACID]
Not Active: IC50 (B2 bradykinin receptor) | IC50 [1] | IC50 [2] | IC50 [3] | IC50 [4] | IC50 [5] | IC50 [6] | Ki [6] | IC50 [7] | Ki [7] | IC50 [8]

CCC1=C[C@@H]2CN(C1)Cc1c([nH]c3ccccc13)[C@@](C(=O)OC)(c1cc3c(cc1OC)N(C)[C@H]1[C@@](O)(C(=O)OC)[C@H](OC(C)=O)[C@]4(CC)C=CCN5CC[C@]31[C@@H]54)C2 [VINORELBINE]
Not Active: IC50 (B2 bradykinin receptor) | IC50 [1] | IC50 [2] | IC50 [3] | IC50 [4] | IC50 [5] | IC50 [6] | Ki [6] | IC50 [7] | Ki [7] | IC50 [8]

CADMIUM DICHLORIDE
Not Active: IC50 (B2 bradykinin receptor) | Ki (B2 bradykinin receptor) | IC50 [1] | Ki [1] | IC50 [2] | Ki [2] | IC50 [3] | Ki [3] | IC50 [4] | Ki [4] | IC50 [5] | Ki [5] | IC50 [6] | Ki [6] | IC50 [7] | Ki [7] | IC50 [8] | Ki [8]
